Experimental data: patent US5480990A, “Bicyclopolyazamacrocyclocarboxylic acid complexes for use as contrast agents” (The Dow Chemical Company, priority 1993, dated 1996)

Experiments:
[1] = Biodistribution: % injected dose in several tissues of Sprague Dawley rats, 30 min after tail vein injection; type: in vivo; details: rat
Procedure: Sprague Dawley rats were allowed to acclimate for five days then injected with 100 μL of the complex solution via a tail vein. The rats weighed between 150 and 200 g at the time of injection. After 30 min. the rats were killed by cervical dislocation and dissected. The amount of radioactivity in each tissue was determined by counting in a NaI scintillation counter coupled to a multichannel analyzer. The counts were compared to the counts in 100 μL standards in order to determine the percentage of the dose in each tissue or organ.
The percent dose in blood was estimated assuming blood to be 7% of the body weight. The percent dose in bone was estimated by multipuling the percent dose in the femur by 25. The percent dose in muscle was estimated assuming muscle to be 43% of the body weight.
In addition to organ biodistribution, chelates of the compounds of Formula (I) were evaluated for efficiency of bone localization since phosphonates are known for their ability to bind to hydroxyapatite.
The percent of the injected dose of complex of Example 1 (^159 Gd-PCTA) in several tissues are given in Table I. The numbers represent the average of 5 rats? per data point.

[2] = Imaging experiments (MRI) in rat, kidney enhancement; type: in vivo, Sprague Dawley rat; details: intramuscular, 0.05-0.1 mmol Gd/kg body weight
Procedure: Injectable solutions were first prepared (0.5M) by dissolving the appropriate amount of each complex in 2 mL of deionized water. The pH of the solutions were then adjusted to 7.4 using 1M HCl or NaOH as needed. The total Gd content of each solution was then determined by ICP analysis.
An anethized Sprague Dawley rat was injected intramuscularly with one of the metal solutions described above at a dose of 0.05-0.1 mmol Gd/kg body weight. Images were then taken at various time intervals and compared with a non-injected control at time 0.

[3] = Percent metal as a complex (Sephadex column, 159Gd tracer); type: physicochemical
Procedure: A stock ^159 GdCl3 solution was prepared by adding 2 μL of 3×10^-4 M ^159 GdCl3 in 0.1N HCl to 2 mL of a 3×10^-4 M GdCl3 carrier solution. Appropriate ligand solutions were then prepared in deionized water. The 1:1 ligand/metal complexes were then prepared by combining the ligands (dissolved in 100-500 μL of deionized water) with 2 mL of the stock 159GDCl3 solution, followed by through mixing to give an acidic solution (pH=2). The pH of the solution was then raised to 7.0 using 0.1N NaOH. The percent metal as a complex was then determined by passing a sample of the complex solution through a Sephadex™ G-50 column, eluting with 4:1 saline ([…]) and collecting 2×3 mL fractions. The amount of radioactivity in the combined elutions was then compared with that left on the resin (non-complexed metal is retained on the resin). […]
A solution of the ligand of Example D was prepared by dissolving 3.8 mg of ligand/0.517 mL of deionized water (pH=2). […] After thorough mixing, the percent metal as a complex was determined by passing a sample of the complex solution through a Sephadex™ column, eluting with 4:1 saline (0.85% NaCl/NH4 OH), and collecting 2×3 mL fractions. The amount of radioactivity in the combined elutions was then compared with that left on the resin. […] By this method complexation was determined to be 92%. […] The pH stability was then determined using the General Procedure above.

[4] = commercial contrast agent, background; cited from earlier work

SMILES	% injected dose in blood, average ([1]; blood (assumed 7% of body weight), 100 μL tail vein, average of 5 rats) [% INJECTED DOSE]	% injected dose in bone, average ([1]; bone (femur x 25), 100 μL tail vein, average of 5 rats) [% INJECTED DOSE]	% injected dose in kidney, average ([1]; kidney, 100 μL tail vein, average of 5 rats) [% INJECTED DOSE]	% injected dose in liver, average ([1]; liver, 100 μL tail vein, average of 5 rats) [% INJECTED DOSE]	% injected dose in muscle, average ([1]; muscle (assumed 43% of body weight), 100 μL tail vein, average of 5 rats) [% INJECTED DOSE]	bone to blood ratio (% dose/g) ([1]; ratio of % dose/g)	bone to liver ratio ([1]; ratio of % dose/g)	bone to muscle ratio ([1]; ratio of % dose/g)	% injected dose in spleen, average ([1]; spleen, 100 μL tail vein, average of 5 rats) [% INJECTED DOSE]	uptake by the renal system [2]	enhancement of the kidney image ([2]; vs non-injected control at time 0)	complexation after passing through the resin ([3]; 1:1 ligand to metal ratio, after passing through the resin)	complexation (percent metal as a complex) ([3]; 1:1 ligand/metal, before passing through the resin) [%]	distribution [4]	elimination [4]
O=C([O-])CN1CCN(CC(=O)[O-])Cc2cccc(n2)CN(CC(=O)[O-])CC1.[159Gd+3] [Gd-PCTA, ^159 Gd-3,6,9,15-tetraazabicyclo[9.3.1]pentadeca-1(15),11,13-triene-3,6,9-trimethylenecarboxylic acid]	5.10	7.38	1.81	0.78	7.76	7	3.5	4.8	0.05	rapidly taken up by the renal system	brilliant enhancement of the kidney cortex as well as peripheral kidney tissue	greater than 98%	92		
CNC[C@H](O)[C@@H](O)[C@H](O)[C@H](O)CO.CNC[C@H](O)[C@@H](O)[C@H](O)[C@H](O)CO.O=C([O-])CN(CCN(CC(=O)[O-])CC(=O)O)CCN(CC(=O)[O-])CC(=O)O.[Gd+3] [Magnevist, complex of gadolinium with diethylenetriaminepentaacetic acid]														freely distributes in extracellular fluid	efficient elimination through the renal system
